Measurements from patent US4849227A, “Pharmaceutical compositions” (Eurasiam Laboratories, Inc., priority 1987, dated 1989).
Where two headings read alike, the source gives them in different places.

Columns and labels:
[1] = tested on: blood sugar (hypoglycemic effect); assay: Test 1-D: intravenous rabbit bioassay; type: in vivo, white rabbits; settings: rabbits, 4 I.U. i.v.; after completion of the infusion
Experimental: FIG. 8 is a comparison of Tong-Shin insulin, the oral insulin of Example 1, and Novo insulin, pursuant to the test of Test 1-D.
In this test, the oral insulin composition of Example 1 was compared with Novo monocomponent porcine crystalline insulin and a regular injectable insulin-40 (Tong-Shin Pharmaceutical Co.) in intravenous rabbit bioassays. Three white rabbits, each weighing 1.8 Kg were fasted overnight and were treated with an intravenous infusion over ten minutes of 4 I.U. of either the Novo insulin, the Tong-Shin insulin-40, or an emulsion comprising the oral insulin composition of Example 1. A venous blood sample was collected from the ear vein of each of the rabbits at 30 minutes prior to the insulin infusion and at times 0, 15, 30, 45, 60, 75, 90 and 105 minutes after completion of the infusions.

plasma glucose level = assay: Test 12B: plasma glucose in a female dog; type: in vivo
Experimental: Hypoglycemic action of the formulation was compared to that of intra-duodenally administered regular injectable insulin (novo actrapid insulin, 1.0 IU per Kg) and of intravenously administered regular injectable insulin (novo actrapid insulin, 0.5 IU per Kg). After infusion of 1.26 IU of regular injectable insulin, intravenously, the plasma glucose level dropped from […] within 20 minutes and returned to […] within 3 hours. Then, 6 IU of regular injectable insulin was intra-duodenally given.

venous serum sugar level = assay: Test 1-C: bioassay in pigs, serum sugar level; type: in vivo, Yorkshire pigs; settings: 8 I.U. intravenously
Description: FIG. 7 is a comparison of the venous serum sugar levels of two pigs, one given the composition of Example 1 and one given Actrapid. The venous serum sugar level of the pig given Example 1 is denoted by "o" and the venous serum sugar level of the pig given actrapid is denoted by "x". The x axis is in minutes and the y axis is in millimoles of serum glucose.
In this test, the oral insulin composition of Example 1 was compared with Actripid intravenous insulin solution (Novo) in a bioassay. Two Yorkshire pigs were fasted overnight and one pig was given 8 I.U. of the Actripid insulin intravenously. The other pig was given an intravenous infusion over a period of 15 minutes of 8 I.U. of the oral insulin composition of Example 1 that had been dissolved into 50 ml of water. Blood was taken from the pair of pigs and the serum sugar levels were measured. […] (See FIG. 7.)

[2] = buccal, cocoa fat base and surfactant, dogs; cited from earlier work
[3] = cited from earlier work
hypoglycemic effect [4] = settings: water/oil/water emulsion, rats; cited from earlier work
blood sugar level = settings: oral with surfactants; cited from earlier work
hypoglycemic effect [5] = settings: other emulsion systems with fat soluble vitamins, dogs; cited from earlier work
[6] = intra-nasal, dogs; cited from earlier work
hypoglycemic effect [7] = settings: oral with isopropylfruorophosphate and indole-3-acetate, rats; cited from earlier work
hypoglycemic response [8] = settings: aerosol, 2.5 U/Kg, rabbits; cited from earlier work
hypoglycemic response [9] = settings: oral with pancreas inactivating agents; cited from earlier work
hypoglycemic response [10] = settings: oral, 150 IU/Kg, rabbits; cited from earlier work
serum glucose = assay: Test 5-A: hypoglycemic effects (serum glucose); type: in vivo, human
Experimental: (§1) The bioavailability of insulin and its corresponding hypoglycemic effects of Example 4 and Example 5 oral insulin preparations were studied in a group of IDDM and NIDDM patients. Example 4 oral insulin was also studied in two normal, healthy male volunteers. In all of the tests set forth in 5-A, the subjects received with each dose of oral insulin two capsules of the lipolytic enzyme of Test 1-E.
(§2) At least 12 or 24 hours prior to the study the patients normal anti-diabetic therapeutic agents were withheld from the patients. After overnight fasting and fasting throughout the entire period of the study, Example 4 or Example 5 oral insulin preparations were orally administered.
(§3) A venous sampling catheter was placed into a vein, usually at the antecubital vein, and blood samples were drawn at time 0, 1.0, 1.5, 2.0, 2.5, 3.0, 4.0 and/or 5.0 hours after the drug administration. Serum glucose was measured on a Gilfordx400, and serum insulin was analyzed by using an Immuno-Enzymatic o-Phenylendiamine (OPD) method and Insulin-B test kit of WAKO (Japan). All measurements were made in duplicate.
(§4) As stated above, two healthy male volunteers […] participated in the study. One subject received the oral insulin of Example 4 twice over a two week period, once each week, receiving 0.20 and 0.27 IU per Kg of the oral insulin. […] Serum insulin level was peaked to 20 micro-U per ml occurring at 1.5 hours after the drug ingestion on both occasions.
The second volunteer received 10 IU of regular injectable insulin-40 (of Tong Shin Pharm. Co. of Seoul, Korea), subcutaneously. […] They were given a glass of fresh orange juice and serum glucose level rose to about 115 mg/dl within one hour.
(§5) Five IDDM Patients have completed all three phases of the study of test 5-A: i.e., they received 10 IU, subcutaneous injection of regular injectable insulin-40 (of Tong Shin Pharm Co. of Seoul, Korea) the first week; they received one single oral dosing of Example 4 (0.544 IU/kg average dose) one week later; and the next week they received 9 consecutive dosings of Example 4 (average dose was 0.544 IU/kg), given at 6-hour intervals.
The Oral Insulin Example 4 was given to a total of 8 IDDM patients (10 trials) (two repeated the study) and 7 NIDDM patients (11 trials) (four patients repeated the study).
Seven IDDM Patients completed the study after oral administration of a single dose of the Example 5 oral insulin preparation.

[11] = Test 8: bioavailability of insulin (insulin levels in serum); type: in vivo, human; settings: Reg. Insulin 0.172 IU/Kg s.c.; Oral Insulin 0.630 IU/Kg; IDDM
Experimental: In two IDDM patients, bioavailability of insulin (insulin levels in serum) was measured after oral administration of Oral Insulin Formulation of Example 7 (0.63 I.U./Kg).
Compared to 0.172 IU/Kg of Regular Insulin, subcutaneous injection in 5 IDDM patients, the `pharmacokinetic and bioavailability` of insulin are as follows:
(§6) Each subject in Test 8 was given two capsules of the lipolytic enzyme composition set forth in Test 1-E with each dose of oral insulin.

serum glucose levels = assay: Test 8: serum glucose in IDDM patients; type: in vivo, human; settings: Regular Insulin 0.172 IU/Kg s.c., Oral Insulin 0.649 IU/Kg
Description: Seven Insulin-Dependent Diabetics (IDDM) patients, 6 males and one person, between 24 to 47 years old (average 34.4) weighing between 48 and 68 Kg each (average 58.6 kg) took between 32 to 48 (average 42.6) International Units of Oral Insulin Formulation of Example 7, orally, after fasting overnight and fasting throughout the study.
as §6

[12] = Test 5-A: bioavailability of insulin (serum insulin); type: in vivo, human; settings: Regular Insulin 0.172 IU/Kg s.c.; Example 4 0.544 IU/Kg oral 1st dose; Example 5 0.649 IU/Kg oral 1st, fasting
Experimental: as §1, §2, §3, §4, §5

blood glucose levels = assay: Test 1-E: oral insulin in healthy male volunteers, blood glucose; type: in vivo, human
Experimental: In this test, the oral insulin composition of Example 1 was administered orally to two healthy male volunteers.
Two healthy volunteers, weighing 52 and 54 Kg participated in the study. Each subject received a 16 I.U. dose of the oral insulin composition of Example 1 during the study. Along with the oral insulin composition of Example 1, each participant received two capsules of lipolytic enzymes. Each capsule consisted of:
The enzyme capsules were made as follows: Pancreatic Lipase was coated with 0.1 to 0.3 microns thick coating of hydroxypropylecellulose and enteric coated with the coating of Example 1. Amylase and Protease were then added. The resultant composition was then coated with 0.1 micron of hydroxypropylcellulose. Bile Salts that had been coated with 0.1 micron of hydroxypropylcellulose was then added to a hard gel capsule with the Pancreatic Lipase resultant product.
At 7:30 am on the day of the trial, each participant consumed a standard breakfast consisting of two fried eggs, two strips of bacon, two slices of toasted dark bread, a tablespoon of butter, and cup of black coffee. The insulin composition of Example 1 was administered orally at 10:00 am to both subjects. The oral insulin was administered in capsules comprising 16 I.U. of Novo crystalline monocomponent porcine insulin. At 12:00 both subjects consumed a standard lunch consisting of 180 gm of beef steak, a tossed green salad with oil and vinegar dressing, a piece of dark bread, and black coffee.
Blood samples were collected from the subject at 10:00, 13:00 and 16:00 and were analyzed for blood glucose levels.
One week later, both volunteers had the standard breakfast (i.e., the breakfast given on the first day of the test) at the same time. At 10:00 both subjects received a subcutaneous injection of 16 I.U. of Tong-Shin regular injectable insulin-40. At approximately 10:30 both subjects began to experience hypoglycemic reactions which lasted for roughly two hours. Both subjects were served pure orange juice at 11:20 and were served the standard lunch at 12:00.

[13] = Regular Insulin 0.172 IU/Kg s.c., Example 4 0.544 IU/Kg oral 1st dose, Example 5 0.649 IU/Kg oral 1st, fasting

Novo insulin: Novo monocomponent porcine crystalline insulin
time of peak hypoglycemic effect [1]: ≤ 30 min

Actripid insulin: intravenous insulin solution (Novo)
plasma glucose level before infusion (plasma glucose level; 1.26 IU intravenous): 102 mg/dL | plasma glucose level, return (plasma glucose level; 1.26 IU intravenous, within 3 hours): 100 mg/dL | change of blood glucose level (plasma glucose level; 6 IU intra-duodenal, over three hours): No changes in the blood glucose levels | decrease of venous serum sugar level, compared between the two insulins (venous serum sugar level): decreased by roughly an equal degree

insulin
bioavailability [2]: only poor bioavailability | bioactivity after oral administration [3]: low bioactivities | intramuscular dose with effect equivalent to 250 IU/Kg orally (hypoglycemic effect [4]): 10 IU/Kg | intravenous dose with effect on blood sugar equivalent to 35 units orally (blood sugar level): 4 units | hypoglycemic effects (hypoglycemic effect [5]): mild and not dose responsive | bioavailability [6]: high bioavailability | hypoglycemic effect (hypoglycemic effect [7]): induce a hypoglycemic effect | hypoglycemic response (hypoglycemic response [8]): induced hypoglycemic response | bioavailability equivalent of hypoglycemic response (hypoglycemic response [9]): 3%

beta-Naphthyl-azo-Polystearryle-insulin
hypoglycemic response (hypoglycemic response [10]): induced a hypoglycemic response

Regular Insulin
CO, base value of Serum Glucose (serum glucose; [13]): 271 mg/dL | Cmin, minimum value of glucose (serum glucose; [13]): 94.5 mg/dL | T100, time to reach 100 mg/dl of serum glucose (serum glucose; [13]): 2.1 | TC-min, time of observing the minimum glucose level (serum glucose; [13]): 4.0 | dC/dT, rate of reduction in Serum Glucose levels (serum glucose; [13]): 59.16 | time of insulin-induced shock symptoms (serum glucose; healthy volunteer, 10 IU subcutaneous): 72 min | serum glucose at time of shock symptoms (serum glucose; healthy volunteer, 10 IU subcutaneous, 72 minutes): 47 mg/dL | serum glucose after orange juice (serum glucose; healthy volunteer, 10 IU subcutaneous, within one hour of orange juice): about 115 mg/dl | IO, base value of insulin [11]: 8.0 micro-U/ml | Imax, maximum value of serum insulin [11]: 20.3 micro-U/ml | TI-O, time to reach the base value of serum insulin [11]: 4.8 | TI-max, time of observing the maximum value of serum insulin [11]: 1.5 | dI/dt, rate of rise of serum insulin (absorption rate) [11]: 38.29 | CO (printed 00), base value of glucose (serum glucose levels): 271 Mg/dl | Cmin, minimum value of glucose observed (serum glucose levels): 94.5 Mg/dl | T100, time to reach 100 mg/dl (serum glucose levels): 2.1 | TC-min, time of observing the minimum glucose level (serum glucose levels): 4.0 | dC/dT, rate of hypoglycemic action (serum glucose levels): 59.16 | IO, base value of Serum Insulin [12]: 8.0 micro-U/ml | Imax, maximum value of insulin [12]: 20.3 micro-U/ml | TI-O, time to reach the base value of Serum Insulin level [12]: 4.8 | TI-max, time to reach the maximum Serum insulin level [12]: 1.5 | dI/dT, rate of rise of serum insulin level [12]: 38.29 | time of peak hypoglycemic effect [1]: 60 min | duration of hypoglycemic reactions (blood glucose levels; 16 I.U. subcutaneous): roughly two | time of peak hypoglycemic effect (blood glucose levels; 16 I.U. subcutaneous): roughly 3 hours | blood glucose / effect after six hours (blood glucose levels; 16 I.U., 6 hours): the effect disappeared by 6 hours after administration
